Experimental data taken from PMC11969438 (Inorganic Chemistry Frontiers, 2025).

Assays:
[1] = tested on: IRF pathway (STING-dependent); assay: IRF-inducible luciferase reporter in THP1-Dual reporter cell model; assay type: cell-based, human; details: for EC50: 24 h exposure, normalized to cell viability, oxaliplatin in combinations 5 μM
Description: (§1) The THP1-Dual™ reporter cell model for simultaneously monitoring the activity of the IRF and NF-κB pathway contains an IRF-inducible luciferase reporter under the control of an ISG54 minimal promoter in conjunction with five interferon (IFN)-stimulated response elements, and an induced SEAP driven by an IFN-β minimal promoter fused to five copies of the NF-κB consensus transcriptional response element and three copies of the c-Rel binding site. The luciferase and SEAP reporter are measurable in the cell culture supernatant using QUANTI-Luc™ 4 Lucia/Gaussia (InvivoGen) and QUANTI-Blue™ (InvivoGen) solution, respectively. Cells were seeded at 1 × 10^5 cells per well in 96-well plates in RPMI-1640 medium, supplemented with 10% FCS, L-glutamine and Pen-Strep. After 2 h of recovery, the compounds were applied at the concentrations indicated in triplicate. The cell culture supernatant (SN) was collected after 24 h of drug incubation and secreted luciferase and SEAP reporter levels were measured according to the manufacturer's recommendations. In brief, for the detection of luciferase, 20 μL of SN were transferred into 96-well white opaque plates, and 30 μL of QUANTI-Luc™ reagent were added per well using an injector module in a multimode microplate reader (Tecan Spark, Zurich, Switzerland). Luminescence was recorded at a reading time of 0.1 second. For the detection of SEAP, 10 μL of SN were transferred to 96-well plates and 90 μL of QUANTI-Blue™ were added per well. Absorbance was measured at 620 nm. Half-maximal effective concentrations (EC50 values) were derived via interpolation from dose–response curves, modeled with the four-parameter logistic (4PL) nonlinear regression model in GraphPad Prism. For comparison, the maximal response rate of the prodrug was depicted in the percent of the maximal response rate achieved by SR-717 or MSA-2 (%EMAX) at the respective concentrations tested. Activatability, tested in co-incubation experiments with AA (50 μM), was expressed as the area under the curve (AUC) ratio of +AA vs. −AA-treated cells. The STING-dependency of the reporter induction was tested by co-administration of the STING inhibitor H-151 (10 μM), added to the cell culture medium 2 h before applying the investigated compounds. In addition to monitoring secreted reporter levels, the cell viability of the reporter cells was determined after 24 h of drug treatment by an MTT-based cell viability assay.

[2] = tested on: NF-κB pathway (STING-dependent); assay: NF-κB-inducible SEAP reporter in THP1-Dual reporter cell model; assay type: cell-based, human; details: for EC50: 24 h exposure, normalized to cell viability, oxaliplatin in combinations 5 μM
Description: as §1

[3] = Reduction kinetics with 10 eq. L-ascorbic acid in phosphate buffer, UHPLC; assay type: physicochemical; details: 10 eq. AA, PB pH 7.4, 20 °C; for original compound left in presence of AA: after 5 h
Method: (§2) PB (150 mM, pH 7.4) containing 1 mM platinum compound was incubated at 20 °C, with and without the addition of 10 eq. of AA. The reaction was monitored using a Thermo Scientific Dionex UltiMate 3000 UHPLC system with a Waters Acquity UPLC BEH C18 1.7 μm 3.0 × 50 mm column. Milli-Q water containing 0.1% formic acid and acetonitrile containing 0.1% formic acid were used as eluents. A gradient of 5–95% over 5 min was used with a flow of 0.6 mL min^−1. To evaluate the current state of the reaction, the peak area of the parental complex was used.

THP1-Dual cells [4] = assay: Cytokine and chemokine secretion in cell culture supernatant, Luminex; assay type: cell-based, human; details: 24 h, prodrug 100 μM, MSA-2 25 μM
Method: Quantification of secreted protein targets in either cell culture SN or in plasma of treated animals was performed using a ProcartaPlex (96-well) multiplex assay panel (Thermo Fisher Scientific) in the xMAP detection platform (Luminex). For the in vitro detection of secreted proteins, THP1-Dual cells were seeded at 1 × 10^5 cells per well in 96-well plates in RPMI-1640 medium, supplemented with 10% FCS, L-glutamine and Pen-Strep. After 24 h of recovery, the compounds were applied at the concentrations indicated in triplicate.
After 24 h of drug incubation, the cell culture SN of technical triplicate was collected, pooled, centrifuged (400g, 10 min, 4 °C), transferred into a fresh tube, and stored at −20 °C.
Next, the ProcartaPlex (96-well) multiplex assay panel was performed according to the manufacturer's recommendations. In brief, the capture bead mix was incubated with test samples (undiluted SN or mouse plasma) or standard mix overnight. The SN of three independent experiments or the plasma of four animals per treatment group was loaded onto the multiplex assay plate. Next, biotinylated detection antibody mix and Streptavidin-PE were added to the plate. Following the recommended washing steps, the samples were incubated in a reading buffer and were measured using a Luminex xMAP platform (Bio-Plex MAGPIX Multiplex Reader; Bio-Rad Laboratories) and analyzed using xPONENT software.

THP1-Dual cells [5] = assay: Western blot analysis of STING downstream pathway, DNA damage and cell death markers; assay type: cell-based, human; details: 24 h
Method: The THP1-Dual cell model was seeded at 1 × 10^6 cells per well in six-well plates. After 24 h of recovery, the compounds were applied at the concentrations indicated. After 24 h of drug exposure, whole-cell protein isolation was performed as described previously.[14] Sodium dodecyl sulfate polyacrylamide gel electrophoresis was performed. Proteins were transferred onto polyvinylidene difluoride membranes (Thermo Scientific, Waltham, MA, USA). Antibodies targeting STING (##13 647; 1 : 1000), phospho-STING (#19 781; 1 : 500), TBK1 (#3504; 1 : 500), IRF-3 (#4302; 1 : 500), phospho-p65 (#3033; 1 : 500), ISG15 (#2743; 1 : 1000), caspase-3 (#9665; 1 : 1000), cleaved caspase-3 (#9661; 1 : 1000), PARP (#9532; 1 : 1000), and cleaved PARP (#9541; 1 : 1000) were purchased from Cell Signaling Technology (Danvers, MA, USA). The p65 antibody (#sc-372; 1 : 1000) was purchased from Santa Cruz and the phospho-H2A.X antibody (#05-636-I; 1 : 500) was obtained from Merck (Darmstadt, Germany). The anti-β-actin (#5441; 1 : 2000) antibody was obtained from Sigma-Aldrich. The anti-mouse IgG (#A0168; 1 : 10 000) horseradish peroxidase (HRP)-coupled secondary antibody was purchased from Sigma-Aldrich, and the anti-rabbit IgG (#7074; 1 : 5000) HRP-linked secondary antibody was obtained from Cell Signaling Technology.

[6] = tested on: THP1-Dual, HCT116, HCT116/OxR and CT-26 cells; assay: MTT-based cell viability assay, 72 h, statements over all investigated cell lines; design: species or system human and murine; details: none of the investigated cell lines vulnerable, read-out: IC50 of free single agent
Method: Cell models were seeded (2–2.5 × 10^3 cells per well) in 96-well plates. After 24 h of recovery, the compounds were applied at the concentrations indicated in triplicate. Cell viability was determined after 72 h of continuous drug incubation using an MTT-based cell viability assay (EZ4U, Biomedica, Vienna, Austria) according to the manufacturer's recommendations. Absorbance was measured at 450 nm (vs. 620 nm as reference) using a multimode microplate reader (Tecan Spark, Zurich, Switzerland). Half-maximal inhibitory concentrations (IC50 values) were derived via interpolation from dose–response curves, modeled with the four-parameter logistic (4PL) nonlinear regression model in GraphPad Prism (La Jolla, CA, USA) from at least three independent experiments.

THP1-Dual cells [7] = assay: Quantitative RT-PCR of target genes downstream of STING; assay type: cell-based, human; details: 24 h, prodrugs 100 μM, MSA-2 25 μM
Method: The THP1-Dual cell model was seeded at 1 × 10^6 cells per well in six-well plates. After 24 h of recovery, the compounds were applied at the concentrations indicated. After 24 h of drug exposure, total RNA was isolated using TRIzol reagent (Thermo Fisher Scientific, MA, USA), as described previously.[12] RNA was reverse transcribed into cDNA using RevertAid Reverse Transcriptase (Thermo Fisher Scientific). Real-time PCR was performed using the GoTaq® RT-qPCR system (Promega) with a CFX96 Touch Real-Time PCR Detection System (Bio-Rad Laboratories). Relative mRNA levels were quantified using the 2^−ddCT method.[54] RPL41 was used as a housekeeping gene. Human-specific primers were purchased from Eurofins Genomics (Ebersberg, Germany) with the following sequences: RPL41: fwd (5′-[…]-3′), rev (5′-[…]-3′); IFNB1: fwd (5′-CTTGGATTCCTACAAAGAAGCAGC-3′), rev (5′-[…]-3′); ISG15: fwd (5′-[…]-3′), rev (5′-[…]-3′); IFIT1: fwd (5′-[…]-3′), rev (5′-[…]-3′); CXCL10: fwd (5′-[…]-3′), rev (5′-[…]-3′); and CCL5: fwd (5′-[…]-3′), rev (5′-[…]-3′).

CT-26 tumors = assay: Anticancer efficacy in vivo, syngeneic colorectal carcinoma; design: species or system BALB/c mice; details: i.v. twice a week for two weeks, equimolar to 9 mg kg^−1 oxaliplatin
Method: Tumor size was determined daily via manual caliper measurement. […] Animals were euthanized via cervical dislocation.

[8] = Hydrolytic stability in phosphate buffer, UHPLC; assay type: physicochemical; details: 1 mM, 150 mM PB pH 7.4, 20 °C, over 5 h
Method: as §2

THP1-Dual cells [9] = assay: Intracellular platinum accumulation in vitro by ICP-MS; assay type: cell-based, human; details: 3 h exposure, compared to oxaliplatin
Method: The THP1-Dual cell model was seeded at 1 × 10^6 cells per well in six-well plates. After 24 h of recovery, the compounds were applied at the concentrations indicated in triplicate. After 3 h of drug exposure, the cells were prepared as published previously.[13] […] The lysate was filled up to 8 mL with water. The platinum concentration was determined by ICP-MS analysis. Platinum and rhenium standards were derived from CPI International (Amsterdam, the Netherlands). The total platinum content was determined with an Agilent 7800 quadrupole-based ICP-MS instrument (Agilent Technologies, Tokyo, Japan) equipped with an Agilent SPS 4 autosampler (Agilent Technologies, Tokyo, Japan) and a MicroMist nebulizer at a sample uptake rate of approximately 0.2 mL min^−1. […] Argon was used as a plasma gas (15 L min^−1) and as a carrier gas (∼1.1 L min^−1). The dwell time was set to 0.1 s and the measurements were performed in 12 replicates with 100 sweeps. Rhenium served as an internal standard for platinum.

[10] = H-151 10 μM added 2 h before the compounds
[11] = 24 h, maximal response relative to SR-717

CCc1ccc(NC(=O)Nc2c[nH]c3ccccc23)cc1 [H-151]
effect on agonist- and prodrug-induced IRF reporter signal [1, 10]: completely abolished | effect on agonist- and prodrug-induced NF-κB reporter signal [2, 10]: completely abolished

CC(=O)[O][Pt-2]12([O]C(=O)c3ccc(F)c(F)c3)([NH2+][C@@H]3CCCC[C@H]3[NH2+]1)[O]C(=O)C(=O)[O]2 [Ox-Bz-F2]
original compound left in presence of AA [3]: approximately 95%

COc1cc2cc(C(=O)CCC(=O)O)sc2cc1OC [MSA-2]
secretion of cytokines and chemokines (THP1-Dual cells [4]): induced distinct secretion of cytokines and chemokines | IRF EC50 ratio fold MSA-2 ([1]; 24 h): 1.0 fold | activation of IRF signaling pathway ([1]; 24 h): robustly activated | fold lower IRF-inducing activity compared to SR-717 ([1]; 24 h): ~3.1 fold | IRF %EMAX of MSA-2 ([1]; 24 h, maximal response relative to MSA-2, highest tested dose 100 μM): 100% | EC50 [1]: 9.1 µM | impact of reducing conditions on IRF-induced reporter signal (AUC ratio +AA/−AA) ([1]; AA 50 μM): no notable modulation | NF-κB EC50 ratio fold MSA-2 ([2]; 24 h): 1.0 fold | activation of NF-κB signaling pathway ([2]; 24 h): robustly activated | NF-κB %EMAX of MSA-2 ([2]; 24 h, maximal response relative to MSA-2): 100% | EC50 [2]: 17.7 µM | DNA damage (p-H2A.X upregulation, cleavage of caspase-3 and PARP) (THP1-Dual cells [5]): induced DNA damage | induction of ISG15 (THP1-Dual cells [5]): triggered | phosphorylation of NF-κB (p65) (THP1-Dual cells [5]): only detected in cells treated with MSA-2 | IC50 [6]: > 75 µM | mRNA induction of immune response genes (IFN-β, ISG15, IFIT1, CXCL10, CCL5) (THP1-Dual cells [7]): distinctly induced | tumor growth (CT-26 tumors): significantly inhibited malignant growth

CC(=O)[O][Pt-2]12([O]C(=O)c3ccccc3)([NH2+][C@@H]3CCCC[C@H]3[NH2+]1)[O]C(=O)C(=O)[O]2 [Ox-Bz]
original compound left in presence of AA [3]: approximately 95%

CC(=O)Nc1cc(F)c(F)cc1C(=O)[O][Pt-2]12([O]C(C)=O)([NH2+][C@@H]3CCCC[C@H]3[NH2+]1)[O]C(=O)C(=O)[O]2 [Ox-Bz-F2-NHAc]
original compound left in presence of AA [3]: 40%

CC(=O)[O][Pt-2]12([O]C(=O)c3cc(F)c(F)cc3N)([NH2+][C@@H]3CCCC[C@H]3[NH2+]1)[O]C(=O)C(=O)[O]2 [Ox-Bz-F2-NH2]
original compound left in presence of AA [3]: approximately 80%

COCCOCCOCCOCCC(=O)[O][Pt-2]12([O]C(=O)c3cc(F)c(F)cc3NC(=O)c3ccc(-n4ccnc4)nn3)([NH2+][C@@H]3CCCC[C@H]3[NH2+]1)[O]C(=O)C(=O)[O]2 [Ox-SR-PEG-Es]
original prodrug remaining in presence of AA ([3]; after ∼3 h): only traces | hydrolytic stability [8]: No significant hydrolysis | IRF %EMAX of SR-717 [1, 11]: 66% | EC50 [1]: 12.4 µM | NF-κB %EMAX of SR-717 [2, 11]: 52% | EC50 [2]: 35.1 µM | cellular platinum accumulation (THP1-Dual cells [9]): significantly higher platinum levels compared to oxaliplatin
